The target in series [1] is T1, E166Cf enzyme (Bacillus cereus, UniProt P00809, E185C).
T1 construct: made in house; host or cells: B. subtilis 1A304 (φ105MU331); then labelled chemically
T1 sequence (P00809 28-306 E185C): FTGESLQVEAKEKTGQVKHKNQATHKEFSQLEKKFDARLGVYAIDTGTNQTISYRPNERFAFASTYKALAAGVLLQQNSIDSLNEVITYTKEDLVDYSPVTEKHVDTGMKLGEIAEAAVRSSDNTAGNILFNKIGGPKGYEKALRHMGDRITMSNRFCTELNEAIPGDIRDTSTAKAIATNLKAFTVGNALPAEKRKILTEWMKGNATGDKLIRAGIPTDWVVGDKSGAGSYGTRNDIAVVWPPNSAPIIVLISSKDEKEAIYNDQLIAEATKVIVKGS
Description: Time-resolved fluorescence of E166Cf enzyme with penicillins and cephalosporins. The format is biochemical. Conditions: E166Cf 1.2×10^−7 M, 50 mM phosphate buffer pH 7.0; up to one hour. The procedure: Fluorescence measurements of the E166Cf enzyme in the presence of penicillin G, penicillin V, ampicillin, cefuroxime, cefoxitin and moxalactam were performed on a Perkin Elmer LS50B spectrofluorometer. For time-resolved fluorescence measurement, excitation and emission wavelengths were set at 494 and 515 nm respectively. Both excitation and emission slit widths were set at 5 nm. All fluorescence measurements were performed at room temperature.
With penicillin G as substrate, the fluorescence signal of the E166Cf enzyme (1.2×10^−7 M) at 515 nm in 50 mM phosphate buffer (pH 7.0) increases as a function of the antibiotic concentration (FIG. 4). The time-resolved fluorescence signals of the E166Cf enzyme at 515 nm were also measured with various concentrations of penicillin G (FIG. 5). At low antibiotic concentration (1.0×10^−7 and 1.0×10^−6 M), the fluorescence intensity of the E166Cf enzyme increases gradually and then declines. At high antibiotic concentration (1.0×10^−5 and 1.0×10^−4 M), the fluorescence signal increases instantaneously and levels off to a plateau. The fluorescence signal stays at the plateau for a certain length of time and then declines afterwards. Similar results were obtained with penicillin V and ampicillin (FIGS. 6 and 7).
With cefuroxime, cefoxitin and moxalactam as substrates, the fluorescence intensities of the E166Cf enzyme (1.2×10^−7 M) at 515 nm in 50 mM phosphate buffer (pH 7.0) also increase as a function of antibiotic concentration (FIGS. 8 to 10).
(§1) At high substrate concentration (1.0×10^−5 and 1.0×10^−4 M), the penicillin substrates rapidly occupy the active sites to form the ES complexes, thus switching on the fluorescence of the fluorescein labels instantaneously. […] This can be verified by the fact that the ‘plateau time’ (8 and 22 min for 1.0×10^−5 and 1.0×10^−4 M penicillin G respectively) is consistent with the ‘substrate hydrolysis time’ determined by spectrophotometric assays (7 and 20 min for 1.0×10^−5 and 1.0×10^−4 M penicillin G respectively). When most of the penicillin substrates have been hydrolyzed to carboxylic acids, the fluorescence signal of the labeled enzyme will decline subsequently.

Series [2] has as its target T1, E166Cf enzyme. The experiment in a line: Circular dichroism assay of antibiotic hydrolysis by E166Cf. In kind it is biochemical. Particulars: 1.0×10^−4 M antibiotic, E166Cf 1.2×10^−7 M, one hour incubation. An excerpt:
The absence of a declining fluorescence signal for cefuroxime, cefoxitin and moxalactam can be ascribed to the poor hydrolytic activities of the E166Cf enzyme towards these antibiotics (very low k2 and/or k3) (FIG. 14). As a result, the cephalosporin substrates stay in the active sites. To verify this, the activities of the labeled enzyme with cefuroxime, cefoxitin and moxalactam as substrates were monitored by circular dichroism (CD) spectropolarimetry. […] Therefore, by measuring the CD signals of cefuroxime, cefoxitin and moxalactam (1.0×10^−4 M) at 258, 264 and 265 nm respectively as a function of time in the presence of E166Cf enzyme (1.2×10^−7 M), the hydrolytic activities of the labeled enzyme towards these antibiotics can be monitored.

In series [3] the target is T2, B. cereus penPC β-lactamase (Bacillus cereus, UniProt P00809).
T2 construct: made in house; host or cells: B. subtilis 1A304 (φ105MU331); whole culture used, not purified
The experiment in a line: Drug screening: E166Cf fluorescence in presence of bacterial β-lactamase culture. In kind it is biochemical. On the set-up: key: −: Decline in fluorescence signal (presence of beta-lactam hydrolysis); +: No decline in fluorescence signal (absence of beta-lactam hydrolysis). Conditions: antibiotic 1.0×10^−4 M, E166Cf 1.2×10^−7 M. The procedure: (§2) The use of the E166Cf enzyme in screening bacterial β-lactamases against various β-lactam antibiotics was investigated. The principle of our method is that when both E166Cf and bacterial β-lactamase are incubated with ‘β-lactamase-unstable’ antibiotics, the fluorescence of the E166Cf enzyme will be suppressed because of the greater catalytic efficiency of the bacterial enzyme. In contrast, when bacterial β-lactamases are screened against ‘β-lactamase-resistant’ antibiotics, the fluorescence of the E166Cf enzyme will be enhanced because of the poor hydrolytic activity of the bacterial enzyme. Thus, any β-lactam antibiotic that causes the labeled enzyme to increase its fluorescence intensity in the presence of bacterial β-lactamases can be used in clinical treatments.
(§3) The β-lactamase II, penPC β-lactamase and penP β-lactamase were expressed in B. subtilis 1A304 (φ105MU331). These enzymes were prepared according to the procedures described previously (Reference 7: Thomwell, S. J. East, A. K., Errington, J. An efficient expression and secretion system based on Bacillus subtilis phage phi 105 and its uses for the production for B. cereus β-lactamase I. (1993) Gene 133, 47-53) with slight modifications. A bacterial strain was streaked on an agar plate containing 5 μg/ml chloramphenicol, and the plate was incubated at 37° C. for 24 h. A single bacterial colony from the agar plate was inoculated into 100 ml of sterilized BHY medium (37 g/l brain heart infusion and 5 g/l yeast extract) which was then incubated at 37° C. with shaking at 300 rpm overnight. About 7 ml of overnight inoculum was added to a baffled conical flask containing 100 ml of sterilized BHY medium. The inoculated medium was incubated at 37° C. with shaking at 300 rpm. When the optical density of the bacterial culture at 600 nm reached 3.5 to 4.0, the bacterial culture was heated in a water bath at 51° C. for 5 min. Afterwards, the bacterial culture was incubated at 37° C. with shaking at 300 rpm for a further 6 h. The bacterial culture was then harvested and stored at −20° C.
(§4) Fluorescence measurements of the E166Cf enzyme in the presence of bacterial cultures and β-lactam antibiotics were performed on a FLUOstar microplate reader (BMG Labtechnologies) equipped with two sample injectors. Excitation and emission filters of 485 and 520 nm respectively were used. For B. cereus penPC β-lactamase, B. licheniformis penP β-lactamase and B. cereus β-lactamase II, the labeled enzymes were mixed with the bacterial cultures, and the mixtures were made up to 300 μl with 50 mM phosphate buffer (pH 7.0) in a 96-well microtiter plate (Corning Costar). For the purpose of comparison, B. subtilis cultures, which produced no β-lactamase, were set up as negative controls. For E. coli. TEM-1 β-lactamase, the labeled enzymes were mixed with the bacterial cultures without dilution. E. coli. cultures, which produced no β-lactamase, were set up as negative controls for comparison. The antibiotics were then added to the bacterial samples by the injectors.
(§5) The results from the time-resolved fluorescence measurements of the labeled enzyme (1.2×10^−7 M) in the presence of various bacterial cultures and β-lactam antibiotics (1.0×10^−4 M) are shown in FIGS. 23 to 26.

The target of series [4] is T3, B. cereus β-lactamase II (Bacillus cereus, UniProt P04190).
T3 construct: made in house; host or cells: B. subtilis 1A304 (φ105MU331); whole culture used, not purified
The description is as above. Further details: key: −: Decline in fluorescence signal (presence of beta-lactam hydrolysis); +: No decline in fluorescence signal (absence of beta-lactam hydrolysis). In kind it is biochemical. Particulars: antibiotic 1.0×10^−4 M, E166Cf 1.2×10^−7 M. The procedure:
as §2, §3, §4, §5

Series [5] deals with T4, B. licheniformis penP β-lactamase (Bacillus licheniformis, UniProt P00808).
T4 construct: made in house; host or cells: B. subtilis 1A304 (φ105MU331); whole culture used, not purified
Described as above. In kind it is biochemical. Further details: key: −: Decline in fluorescence signal (presence of beta-lactam hydrolysis); +: No decline in fluorescence signal (absence of beta-lactam hydrolysis). Conditions: antibiotic 1.0×10^−4 M, E166Cf 1.2×10^−7 M. As to the method:
as §2, §3, §4, §5

Series [6] addresses T5, E. coli TEM-1 β-lactamase (Escherichia coli, UniProt P62593).
T5 construct: made in house; host or cells: E. coli BL21(DE3); whole overnight culture used undiluted, not purified
The series is described as above. The format is biochemical. Further details: key: −: Decline in fluorescence signal (presence of beta-lactam hydrolysis); +: No decline in fluorescence signal (absence of beta-lactam hydrolysis). Particulars: E. coli TEM-1 culture, undiluted; antibiotic 1.0×10^−4 M; E166Cf 1.2×10^−7 M. As to the method:
as §2
The TEM-1 β-lactamase was expressed in E. coli. BL21(DE3). Preparation of the TEM-1 β-lactamase was performed as follows. A bacterial strain was streaked on an agar plate containing 100 μg/ml ampicillin, and the plate was incubated at 37° C. for 24 h. A single bacterial colony from the plate was inoculated into 100 ml of sterilized LB broth (28 g/l) which was then incubated at 37° C. with shaking at 280 rpm overnight. After overnight incubation, the bacterial culture was harvested and stored at −20° C.
as §4, §5

Series [7] deals with T6, E166C mutant of β-lactamase I (Bacillus cereus, UniProt P00809, E185C).
T6 construct: made in house; host or cells: B. subtilis 1A304 (φ105MU331)
T6 sequence (P00809 28-306 E185C): T1 sequence (P00809 28-306 E185C)
The experiment in a line: Spectrophotometric substrate hydrolysis, steady-state kinetics. In kind it is biochemical. Particulars: 50 mM potassium phosphate buffer pH 7.0, 20° C. As to the method: (§6) The hydrolytic activities of the wild-type β-lactamase I, E166C and E166Cf mutants towards penicillin G, penicillin V and ampicillin (Sigma) were monitored by the spectrophotometric method. The spectrophotometric measurements were performed on a Perkin Elmer Lambda Bio20 UV/Vis spectrometer. Substrate hydrolysis was monitored at a fixed wavelength: 235 nm for ampicillin, 232 nm for penicillin G and penicillin V. The initial rate of substrate hydrolysis occurring within 5 min was determined in duplicate at each of 6 different substrate concentrations in 50 mM potassium phosphate buffer (pH 7.0) at 20° C. The initial rates determined were then treated as described in Reference 5 to calculate the Michaelis constants (Km) and turnover numbers (kcat) using non-linear regression analysis (equation 1):
(§7) [formula] where v is the initial rate of substrate hydrolysis, Vmax the maximum rate of reaction, [S] the initial substrate concentration, Km the Michaelis constant and kcat=Vmax/[Enzyme].
(§8) The measured steady-state kinetic parameters for hydrolysis of penicillin G, penicillin V and ampicillin by the wild-type β-lactamase I, E166C and E166Cf mutants are summarized in Table 1.

Series [8] deals with T7, wild-type β-lactamase I (Bacillus cereus, UniProt P00809).
T7 construct: made in house; host or cells: B. subtilis 1A304 (φ105MU331)
Described as above. The format is biochemical. Conditions: 50 mM potassium phosphate buffer pH 7.0, 20° C. The procedure:
as §6, §7, §8

Series [9] concerns the target T8, E166Cf (fluorescein-labeled E166C mutant of β-lactamase I) (Bacillus cereus, UniProt P00809, E185C).
T8 construct: made in house; host or cells: B. subtilis 1A304 (φ105MU331); then labelled chemically
T8 sequence (P00809 28-306 E185C): T1 sequence (P00809 28-306 E185C)
The series is described as above. Conditions: E166Cf; 50 mM potassium phosphate buffer pH 7.0, 20° C. In kind it is biochemical. The procedure:
as §6, §7, §8, §1

Series [10] has as its system CC1(C)S[C@@H]2[C@H](NC(=O)[C@H](N)c3ccccc3)C(=O)N2[C@H]1C(=O)O. Described as above. In kind it is biochemical, Bacillus cereus. Conditions: other: Wild-type, 50 mM potassium phosphate buffer pH 7.0, 20° C. As to the method:
as §6, §7, §8

From patent publication US7323303B2, “Modified β-lactamases and uses thereof” (priority 2003, dated 2008) come the findings set out here.

T5 sequence (P62593 24-286 limits assumed): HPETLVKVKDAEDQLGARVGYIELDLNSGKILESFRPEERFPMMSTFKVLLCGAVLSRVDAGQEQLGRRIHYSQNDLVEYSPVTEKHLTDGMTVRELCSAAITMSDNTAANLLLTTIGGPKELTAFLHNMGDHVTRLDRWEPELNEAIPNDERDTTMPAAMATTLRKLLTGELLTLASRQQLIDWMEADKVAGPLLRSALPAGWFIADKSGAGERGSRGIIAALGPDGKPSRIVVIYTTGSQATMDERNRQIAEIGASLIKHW
T2 sequence (P00809 28-306): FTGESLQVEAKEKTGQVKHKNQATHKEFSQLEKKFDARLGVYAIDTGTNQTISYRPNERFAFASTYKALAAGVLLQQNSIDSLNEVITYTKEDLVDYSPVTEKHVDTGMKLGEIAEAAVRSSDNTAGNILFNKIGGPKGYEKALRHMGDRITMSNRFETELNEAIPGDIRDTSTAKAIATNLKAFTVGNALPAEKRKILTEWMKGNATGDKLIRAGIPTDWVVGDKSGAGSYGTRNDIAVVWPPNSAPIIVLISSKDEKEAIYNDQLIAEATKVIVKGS
T3 sequence (P04190 31-257): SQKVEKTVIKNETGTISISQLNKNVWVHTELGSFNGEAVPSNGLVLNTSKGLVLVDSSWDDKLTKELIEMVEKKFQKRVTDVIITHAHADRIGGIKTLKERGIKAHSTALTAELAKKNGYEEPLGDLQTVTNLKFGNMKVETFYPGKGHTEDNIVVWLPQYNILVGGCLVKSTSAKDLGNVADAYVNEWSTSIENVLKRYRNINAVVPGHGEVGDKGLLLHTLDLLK
T4 sequence (P00808 27-307): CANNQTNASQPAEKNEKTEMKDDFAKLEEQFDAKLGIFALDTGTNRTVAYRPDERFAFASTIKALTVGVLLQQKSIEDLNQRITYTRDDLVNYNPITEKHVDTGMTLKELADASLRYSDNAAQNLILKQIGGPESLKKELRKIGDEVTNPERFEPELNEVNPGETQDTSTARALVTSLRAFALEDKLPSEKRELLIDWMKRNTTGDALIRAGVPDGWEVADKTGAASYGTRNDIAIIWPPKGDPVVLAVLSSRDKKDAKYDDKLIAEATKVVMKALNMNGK
T7 sequence (P00809 28-306): as the sequence (P00809 28-306) above

Turning to `CO[C@@]1(NC(=O)Cc2cccs2)C(=O)N2C(C(=O)O)=C(COC(N)=O)CS[C@@H]21` [Cefoxitin, cefoxitin], the “time course of E166Cf fluorescence signal at 515 nm” value (“time course” below) in [1] is given as “no subsequent decline in intensity was observed”. Also, the “change in CD signal of antibiotic (hydrolysis by E166Cf)” value (shortened to “change in CD signal of antibiotic”) in series [2] is “no significant changes in the CD signals”. Further, the “fluorescence signal of E166Cf (beta-lactam hydrolysis)” value (“fluorescence signal of E166Cf” for short) in series [3], in series [4], in series [5] and in series [6] was “+” each time.
In the case of `CO/N=C(\C(=O)N[C@@H]1C(=O)N2C(C(=O)O)=C(COC(N)=O)CS[C@H]12)c1ccco1` [Cefuroxime, cefuroxime], the “time course” value in series [1] is given as “no subsequent decline in intensity was observed”. In addition, in series [2], the “change in CD signal of antibiotic” value is reported as “no significant changes in the CD signals”. Further, the “fluorescence signal of E166Cf” value is on record as “+” in series [3], “−” in series [4], “−” in [5] and “+” in series [6].
Turning to `CC1(C)S[C@@H]2[C@H](NC(=O)COc3ccccc3)C(=O)N2[C@H]1C(=O)O` [Penicillin V, penicillin V], the Km in series [7] amounted to 71 ± 6 µM; in [8], 52 ± 4 µM; in [9], 117 ± 10 µM. In addition, the kcat in series [7] worked out at 1.53 ± 0.03 s⁻¹; in series [8], 2109 ± 4 s⁻¹; in series [9] it was 2.97 ± 0.06 s⁻¹. Besides, the “fluorescence signal of E166Cf” value in [3], in series [4], in series [5] and in series [6] was “−” throughout.
In the case of `CO[C@@]1(NC(=O)C(C(=O)O)c2ccc(O)cc2)C(=O)N2C(C(=O)O)=C(CSc3nnnn3C)CO[C@@H]21` (stereo partly shown) [Moxalactam, moxalactam], the “time course” value in series [1] is recorded as “no subsequent decline in intensity was observed”. Further, the “change in CD signal of antibiotic” value in series [2] is “no significant changes in the CD signals”. The “fluorescence signal of E166Cf” value in [3], in [4], in series [5] and in series [6] was “+” throughout.
As for “wild-type β-lactamase I (Bacillus cereus)”, in series [10], the Km came out at 142 ± 8 µM, the kcat worked out at 5210 ± 275 s⁻¹ and the kcat/Km was 3.7e+07 ± 4e+06 M⁻¹ s⁻¹.
